This is an account of results in PMC7083880 (Nature Communications, 2020).

For one data set, the system named is nonsense mutations. Also noted: method as in PMID 28096517. As to conditions: cited from earlier work.
Data set [1] has as its system HeLa cells. The data set can be described thus: Toxicity assay: adenylate kinase activity in culture medium. As to conditions: 24 h; for Adenylate kinase activity in culture medium: STS 2µM. In kind it is cell-based, human. Here is the method: The toxicity assay was performed 24 h after starting cell treatment. The cell culture supernatant was centrifuged at 6000×g for 10 min to pellet cells and cell debris. One-twentieth of the supernatant was then used to measure adenylate kinase activity according to the supplier’s protocol (Lonza Biosciences, Basel, Switzerland).

Data set [2] has as its system HeLa cells. The data set can be described thus: MTT colorimetric toxicity assay. In kind it is cell-based. The note with it: STS 2µM, 24 h. Here is the method:
incubated in cell culture medium containing 0.5 mg/ml 3-(4,5-dimethylthiazol-2-yl)-2,5-diphenyltetrazolium bromide (MTT) for 2 h at 37°C. The cells were then incubated for 30 min at 37°C in the solubilization solution (isopropanol/1N HCl 23:1) before collecting the supernatant to measure the absorbance at 540 and 620 nm for the background.
Supplementary Figure 4. […] (A) HeLa cells were incubated with propidium iodide after […]
staurosporine (STS). (B) HeLa cells were incubated with MTT after treatment for 24 h with […]
The results presented are representative of two independent experiments at least. Error bar= S.D., p-values (p) were calculated using Student's t-test. Source data are provided as a Source Data file.
(also on this page, place not known: % dead Colorimetry measure (au) cells of) […]
A general note: Tetrazolium dyes change colour on reduction, which living cells bring about.

The test system of data set [3] is L5178Y TK+/− mouse lymphoma cells.
Description: The idea was to reproduce the metabolizing conditions prevailing in the liver.
This was followed by a 24-h recovery period when the experiment was performed in the presence of Aroclor-induced rat liver S9 metabolizing mix (at 2% final concentration). […] The nuclei were then stained with Giemsa before counting the micronuclei among 1000 mononucleated cells.

In the case of `Nc1ncnc(N[C@@H]2O[C@H](CO)[C@@H](O)[C@H]2O)c1[N+](=O)[O-]` [clitocine, (2R,3R,4S,5R)-2-[(6-amino-5-nitropyrimidin-4-yl)amino]-5-(hydroxymethyl)oxolane-3,4-diol], the “Nonsense mutation correction compared to G418” value in the data set with nonsense mutations is reported as “correct nonsense mutations more efficiently than G418”.

Regarding `CN[C@@H]1C[C@H]2O[C@@](C)([C@@H]1OC)n1c3ccccc3c3c4c(c5c6ccccc6n2c5c31)C(=O)NC4` [STS, staurosporine, reference compound], the “Release of adenylate kinase, in words” value in the data set on HeLa cells [1] was “released adenylate kinase”. Also, the “Adenylate kinase activity in culture medium” value was 1755878 in the data set on HeLa cells [1] (average), 1822755 in the data set on HeLa cells [1] (experiment 1), 1498272 with HeLa cells [1] (experiment 2) and 1946608 with HeLa cells [1] (experiment 3). Moreover, the MTT colorimetry measure with HeLa cells [2] (average) is given as 0.183 au; with HeLa cells [2] (experiment 1), 0.0455 au; in the data set with HeLa cells [2] (experiment 2), 0.1825 au; in the data set with HeLa cells [2] (experiment 3) it was 0.321 au.

In data set [3], `O=P1(N(CCCl)CCCl)NCCCO1` (centres unmarked) [Cyclopho sphamide, cyclophosphamide] had a Micronucleated cells of 60.
